Measured values reported in US7772237B2, “Thio-substituted tricyclic and bicyclic aromatic methanesulfinyl derivatives” (Cephalon France, priority 2004, dated 2010).

Test system: male Wistar rats
Test: Evaluation of wake promoting activity in rats (EEG/EMG sleep/wake scoring)
Type: in vivo, rat
Details: i.p., 100 mg/kg, p<0.05 vs control groups
Method: Biological Data Methodology: Evaluation of Wake Promoting Activity in Rats
The methodology utilized for evaluating wake promoting activity of test compounds is based on that described by Edgar and Seidel, Journal of Pharmacology and Experimental Therapeutics, 283:757-769, 1997, and incorporated herein in its entirety by reference.
Animal Surgery. Adult, male Wistar rats (275-320 g from Charles River Laboratories, Wilmington, Mass.) were anesthetized (Nembutal, 45 mg/kg, ip.) and surgically prepared with implants for recording of chronic EEG (encephalographic) and EMG (electromyographic) recording. The EEG implants were made from commercially available components (Plastics One, Roanoke, Va.). EEG signals were recorded from stainless steel screw electrodes: 2 frontal (+3.0 mm AP from bregma, ±2.0 mm ML), and 2 occipital (−4.0 mm AP from bregma, ±2.0 mm ML). Two Teflon-coated stainless steel wires were positioned under the nuchal trapezoid muscles for EMG recording. […]
Data acquisition. […] On the day of dosing, data was recorded for 6 to 10 hours beginning at 11 AM.
(i) Drug administration and study design. Compounds were evaluated on groups of from 4 to 8 rats carried out over one or two separate test sessions. […]
Sleep/wake scoring. Sleep and wake activity were determined manually using ICELUS software. […]

CC(C)(C)OC(=O)N1CCN(C(=O)CSCc2ccc3oc4ccc(F)cc4c3c2)CC1 [Example 26, 4-[2-(8-fluorodibenzofuran-2-yl-methylsulfanyl)acetyl]-piperazine-1-carboxylic acid tert-butyl ester]
wakefulness compared to vehicle-treated animals: significantly greated wakefulness
